Assay results taken from US8481678B2, “Peptide-based tooth whitening reagents” (E I du Pont de Nemours and Company, priority 2009, dated 2013).
Where no end group is shown, it is not given here. The star is where a group is joined. Biotin = O=C1N[C@H]2[C@H](CS[C@H]2CCCCC(=O)*)N1

Tests used:
[1] = tested on: pellicle-coated HAP disks (tooth pellicle); assay: Phage ELISA on pellicle-coated HAP disks; format: binding, human; conditions: over 10^10 pfu phage, TBST-0.5% washes, no-phage control 0.218
From the text: A total of 20 selected phage candidates (Example 1) were used in a phage ELISA experiment. Purified phage lysates were used for binding to pellicle-coated HAP disks using an anti-M13 phage antibody conjugated to horseradish-peroxidase, followed by the addition of chromogenic agent TMB (3,3′,5,5′-tetramethylbenzidine), obtained from Pierce Biotechnology (Item #34021; Rockford, Ill.). The plates were read at A450 nm.
For each phage candidate to be tested, the pellicle-coated HAP disks (3 mm diameter) was incubated for 1 h at room temperature with 200 μL of blocking buffer, consisting of 2% non-fat dry milk (Schleicher & Schuell, Inc.) in TBS. […] The tube was rinsed 6 times with wash buffer consisting of TBST-0.05%. The wells were filled with 200 μL of TBST-0.5% containing 1 mg/mL BSA (bovine serum albumin) and then 10 μL (over 10^10 pfu) of purified phage stock was added. The samples were incubated at room temperature for 60 min with slow shaking. The non-binding phage were removed by washing 6 times with TBST-0.5%. Then, 100 μL of horseradish peroxidase/anti-M13 antibody conjugate (Amersham USA, Piscataway, N.J.), diluted 1:500 in the blocking buffer, was added and incubated for 1 hour at room temperature. The conjugate solution was removed and was washed 6 times with TBST-0.5%.

[2] = tested on: pellicle-coated enamel substrates; conditions: 20 μM synthetic biotinylated peptide, 30 min at 37° C.; normalized to DenP03; three replicates; no peptide −0.001
Method: A total of 20 synthetic peptides were manufactured using sequences obtained from Table 14. Peptides were obtained from Synbiosci (Livermore, Calif.) and included an additional SSRP sequence (SEQ ID NO: 151) at the N-terminus and biotin labeled lysine at the C-terminus.
Enamel substrates were cut to approx. 7 mm squares and mounted on wax mounting for incubation in the mouth for 30 min to form a pellicle coated surface. The pellicle-coated enamel substrates were removed from the wax backing and placed in well plates with the pellicle surface exposed as in Example 1. Each pellicle-coated substrate was incubated for 1 h at room temperature (˜22° C.) with 1 mL of blocking buffer, consisting of 1 mg/mL BSA in PBST (Pierce BupH™ #28372 with 0.1% TWEEN® 20). The blocking buffer was removed by aspirating the liquid out of each well. The tube was rinsed 2 times with wash buffer consisting of PBST. The wells were filled with 500 μL of 20 μM peptide solution which was prepared by diluting in blocking buffer. The samples were incubated for 30 min with slow shaking at 37° C. The non-binding peptide was removed by washing 6 times with PBST. Then, 500 μL of horseradish peroxidase/streptavidin conjugate (Pierce #22127), diluted 1:2000 in PBST, was added and incubated for 1 h at room temperature. The conjugate solution was removed and was washed 4 times with PBST.
Each enamel substrate was removed from the well and washed again in a 15-mL test tube with 10 mL of PBST. Each enamel substrate was then mounted in a clean well plate with only the enamel surface exposed. A 1:1 solution of TMB substrate and H2O2 (200 μL), obtained from Pierce Biotechnology (Rockford, Ill.) was added to each well and the color was allowed to develop for between 10 to 20 min, typically for 15 min, at room temperature (˜22° C.). Then, 100 μL of solution from each well was transferred to a 96-well reading plate containing stop solution (100 μL of 2 M H2SO4) in each well. The A450 was measured using a microplate spectrophotometer (Molecular Devices, Sunnyvale, Calif.). […] Each sequence was tested with three replicate enamel coated pellicle substrates.

[3] = tested on: pellicle coated bovine enamel; assay: Phage ELISA on pellicle-coated bovine enamel (30 min in vivo pellicle), Example 13; format: binding, human; conditions: 10^11 pfu, 30 min at 37° C., normalized to an internal control
Method: A total of 29 selected phage candidates from Table 14 were used in phage ELISA Experiment to determine binding affinity and coverage of each phage on pellicle substrates. Purified phage lysates were used for binding to pellicle coated bovine enamel using an anti-M13 phage antibody conjugated to horseradish-peroxidase, followed by the addition of chromogenic agent TMB, obtained from Pierce Biotechnology (Rockford, Ill.). The plates were read at A450nm.
The wells were filled with 1 mL of 10^11 pfu purified phage stock which was prepared by diluting in blocking buffer. […] The non-binding phage was removed by washing 5 times with PBST. […] The conjugate solution was removed and was washed 3 times with PBST.

Substance | O.D. at 450 nm [1] | O.D. at 450 nm (normalized) [3] | other results
TPCAPASFNPHCSR (Tooth-binding peptide) [Pell 18] | 0.416 |  | 
NGPEVRQIPANFEKL (Tooth-binding peptide) [Pell 11] | 0.607 |  | 
WCTDFCTRSTPTSTSRSTTS (Tooth-binding peptide) [Pell 20] | 0.715 |  | 
SSRPVNPNWVETQALHQPPGNTK(Biotin) [DenP20-A] |  |  | O.D. at 450 nm (normalized) [2]: 0.590
QHCITERLHPPCTK (Tooth-binding peptide) [Pell 17] | 0.614 |  | 
EFPYYNDNPPNPERHTLR (Synthetic oral-surface binding peptide) [DenP 07] |  | 1.500 | 
IYPNESMSTSNVRGPYHP (Synthetic oral-surface binding peptide) [DenP 22] |  | 1.420 | 
NNTWPEGAGHTMPSTNIRQA (Tooth-binding peptide) [Pell 13] | 0.598 |  | 
KAPIANMLQPHSYQYSVA (Synthetic oral-surface binding peptide) [DenP 18] |  | 1.143 | 
SSRPGPQHVLMQDTHQGYAFDNK(Biotin) [DenP16-A] |  |  | O.D. at 450 nm (normalized) [2]: 0.309
IPWWNIRAPLNAGGG [Control, reference compound] |  | 1.000 | 
HKNENIMQYNVNDRWHITPA (Synthetic oral-surface binding peptide) [DenP 32] |  | 1.441 | 
SEARARTFNDHTTPMPII (Synthetic oral-surface binding peptide) [DenP 14] |  | 2.498 | 
ANELSTYAQTNPGSG (Synthetic oral-surface binding peptide) [DenP 25] |  | 0.909 | 
SNATMYNIQSHSHHQ (Synthetic oral-surface binding peptide) [DenP 24] |  | 0.979 | 
HDPNHLTHQARTIYRNANHT (Synthetic oral-surface binding peptide) [DenP 23] |  | 1.236 | 
GNTDTTPPNAVMEPTVQHKW (Tooth-binding peptide) [Pell 9] | 0.755 |  | 
SSRPAPPTYQTASYPHNLPSKRKMK(Biotin) [DenP28-A] |  |  | O.D. at 450 nm (normalized) [2]: 0.811
NGPDMVQSVGKHKNS (Tooth-binding peptide) [Pell 10] | 0.729 |  | 
TMTNHVYNSYTEKHSSTHRS (Synthetic oral-surface binding peptide) [DenP 02] |  | 1.951 | 
AVVPADLNDHANHLS (Synthetic oral-surface binding peptide) [DenP 10] |  | 1.619 | 
NPTATPHMKDPMHSNAHSSA (Tooth-binding peptide) [Pell 14] | 0.7 |  | 
TYQGVPSWPAVIDDAIRR (Synthetic oral-surface binding peptide) [DenP 19] |  | 1.052 | 
NNTSADNPPETDSKHHLSMS (Tooth-binding peptide) [Pell 12] | 0.521 |  | 
NPTDHIPANSTNSRVSKGNT (Tooth-binding peptide) [Pell 15] | 0.567 |  | 
TPCATYPHFSGCRA (Tooth-binding peptide) [Pell 19] | 0.731 |  | 

Substance | O.D. at 450 nm [1] | O.D. at 450 nm (normalized) [3] | other results
AHPESLGIKYALDGNSDPHA (Tooth-binding peptide) [Pell 1] | 0.739 |  | 
APPTYQTASYPHNLPSKRKM (Synthetic oral-surface binding peptide) [DenP 28] |  | 1.203 | 
DPNESNYENATTVSQPTRHL (Tooth-binding peptide) [Pell 7] | 0.831 |  | 
HKNAIQPVNDATTLDTTM (Synthetic oral-surface binding peptide) [DenP 09] |  | 1.364 | 
VEPATKNMREARSSTQMRRI (Synthetic oral-surface binding peptide) [DenP 04] |  | 1.421 | 
TTGSSSQADTSASMSIVPAH (Synthetic oral-surface binding peptide) [DenP 17] |  | 0.971 | 
VNPNWVETQALHQPPGNT (Synthetic oral-surface binding peptide) [DenP 20] |  | 1.298 | 
DHNNRQHAVEVRENKTHTAR (Synthetic oral-surface binding peptide) [DenP 21] |  | 0.728 | 
NGNNHTDIPNRSSYTGGSFA (Synthetic oral-surface binding peptide) [DenP 01] |  | 1.002 | 
QVPDYLSPTHQKKAFLEIPT (Synthetic oral-surface binding peptide) [DenP 29] |  | 0.976 | 
DLCSSPSTWGSCIR (Tooth-binding peptide) [Pell 6] | 0.735 |  | 
GPQHVLMQDTHQGYAFDN (Synthetic oral-surface binding peptide) [DenP 16] |  | 2.190 | 
ASVSNYPPIHHLATSNTTVN (Tooth-binding peptide) [Pell 2] | 0.75 |  | 
DLGTFPNRTLKMAAH (Synthetic oral-surface binding peptide) [DenP 11] |  | 1.663 | 
DTIHPNKMKSPSSPL (Synthetic oral-surface binding peptide) [DenP 26] |  | 1.039 | 
TNDLHANPFTGTYIAPDPTS (Synthetic oral-surface binding peptide) [DenP 30] |  | 1.082 | 
ELDHDSRHYMNGLQRKVT (Synthetic oral-surface binding peptide) [DenP 15] |  | 1.112 | 
NPTDSTHMMHARNHE (Tooth-binding peptide) [Pell 16] | 0.578 |  | 
DLCSMQMMNTGCHY (Tooth-binding peptide) [Pell 5] | 0.83 |  | 
DECMEPLNAAHCWR (Tooth-binding peptide) [Pell 3] | 0.49 |  | 
GMPTRYYHNTPPHLTPKF (Synthetic oral-surface binding peptide) [DenP 08] |  | 1.182 | 
YLLPKDQTTAPQVTPIVQHK (Synthetic oral-surface binding peptide) [DenP 05] |  | 1.087 | 
DECMHGSDVEFCTS (Tooth-binding peptide) [Pell 4] | 0.664 |  | 
EPTHPTMRAQMHQSLRSSSP (Tooth-binding peptide) [Pell 8] | 0.712 |  | 
QAAQVHMMQHSRPTT (Synthetic oral-surface binding peptide) [DenP 13] |  | 0.845 | 
FDGIGLGTATRHQNR (Synthetic oral-surface binding peptide) [DenP 12] |  | 2.079 | 
